{"source": "patent US20220401591A1", "about": "“SYSTEM AND METHOD FOR QUANTITATIVE MAPPING OF MITOCHONDRIAL COMPLEX 1” (Lantheus Medical Imaging, Inc., priority 2012, published 2022)", "key": {"[1]": {"system": "mitochondrial complex I (MC-I)", "assay": "100 minute dynamic ^18F-Flurpiridaz PET study of binding in the heart, 2-compartment reversible model fit", "type": "in vivo, cynomolgus monkey", "conditions": "myocardium ROI, 100 min data, 1.25 mCi", "source_text": "Measurement of myocardial blood flow and binding potential with ^18F-Flurpiridaz can be approached with standard methods that are well understood and available in our laboratory. We use a four parameter (K1, k2, k3, k4), two tissue compartment model (FIGS. 1A-1B) to describe Flurpiridaz kinetics. In this model the tracer can be in one of two states, either free, as the injected molecule, or bound to a receptor. In the case of ^18F-Flurpiridaz, previous studies have shown that it binds reversibly to mitochondrial complex I and this is supported by the data presented herein (see Example 3). Referring to FIGS. 1A-1B, the product of plasma concentration (Cp) and transport rate K1 is the force driving the tracer from capillary plasma to the free space (i.e., both free and nonspecifically bound). Conceptually, CF represents free flurpiridaz and CB represents Flurpiridaz binding to the MC-I complex. Corrections (not shown) are included for spillover of activity.\nSymbolically, K1 is the plasma-to-tissue transport rate, FE, the product of flow and the unidirectional capillary extraction fraction, E. k2 is a rate constant summarizing the egress from tissue to plasma. The rate constants k3 (kon*B′max) and k4 (koff) provide a summary description of binding and release of tracer. This model, with nonlinear least squares, was used to fit 100 minutes of data obtained in a study of binding in the heart of a cynomolgus monkey (see Example 3). It is anticipated that a similar approach will be adequate for validation studies in pigs. Graphical methods can also be studied and applied for determination of BP, as they may be more appropriate for quantitative parametric images and future translation to human studies. For example, consider: Logan J, Fowler J S, Volkow N D, et al. Graphical analysis of reversible radioligand binding from time-activity measurements applied to [N-11C-methyl]-(-)-cocaine PET studies in human subjects. J Cereb Blood Flow Metab. Sep 1990; 10(5):740-747 and Zhou Y, Ye W, Brasic J R, Crabb A H, Hilton J, Wong D F. A consistent and efficient graphical analysis method to improve the quantification of reversible tracer binding in radioligand receptor dynamic PET studies. Neuroimage. Feb 1 2009; 44(3):661-670. Software programs for both approaches have been developed. Realistic Monte Carlo simulation and sensitivity analysis can be used to determine the precision obtained with a given dose of ^18F-Flurpiridaz and the experimental duration of the study. The structure of ^18F-Flurpiridaz is detailed in FIG. 1C.\nBased on preliminary data from a primate study using ^18F-Flurpiridaz, the parameter precision for estimating the MBF and BPP was evaluated. […]"}, "MC-I": {"system": "MC-I", "assay": "^18F-Flurpiridaz cardiac dynamic PET in infarcted pig, two-tissue compartment model", "type": "in vivo, domestic swine", "source_text": "In some aspects the model is further developed. The modeling approach is based upon the two-tissue compartment model that describes the uptake and retention of a radiotracer that diffusively exchanges between the blood and tissue, and binds reversibly to a specific target site (FIG. 1A-1B). In this framework the concentration of radiotracer is considered in three distinct states: in the plasma (CP) or one of two tissue states, freely suspended in the tissue fluids (CF) or specifically bound to the target site (CB). Four parameters (K1, k2 , k3, k4) detail the physiological mechanisms underlying uptake and binding. K1 and k2 pertain to the rates of tracer influx (proportional to blood flow) from the vasculature and efflux back out of the tissue, respectively. The ratio K1/k2 is the partition coefficient VND. which reflects non-specific uptake based on properties of the tissue that are not expected to vary regionally. The rate at which tracer binds to the target site is related by k3. The bimolecular nature of associative binding makes k3 a compound parameter, the product of kon (an intrinsic binding rate characteristic to the ligand and target site) and Bmax (the density of the binding sites). For reversibly binding interactions such as between ^18F-Flurpiridaz and MC-I, the return of specifically bound tracer to the free state is portrayed by k4. Here k4 is synonymous with the intrinsic binding dissociation constant koff, which is not expected to differ between regions. In our cardiac application, two additional parameters (fLV, fRV) account for signal contamination from blood pools in the adjacent left and right ventricles. Combinations of individual rate constants yield macroparameters that are robust and informative with regard to radiotracer binding at the target site. These macroparameters include total volume of distribution (VT=[K1/k2][1+k3/k4], the equilibrium ratio of tracer concentration in tissue vs. plasma) and several variants of binding potential (BP, proportional to the target density). […]"}, "[2]": {"conditions": "cited from earlier work"}, "[3]": {"conditions": "17 segments fitted independently"}}, "data": [{"compound": "CC(C)(C)n1ncc(OCc2ccc(COCCF)cc2)c(Cl)c1=O", "note": "[^18F-Flurpiridaz]", "values": [{"measurement": "k2 (egress from tissue to plasma)", "setting": "[1]", "result": "0.075 (SD=4.7%)"}, {"measurement": "k3/k4", "setting": "[1]", "result": "1.65 (SD=4.0%)"}, {"measurement": "k4 (koff, release)", "setting": "[1]", "result": "0.016 (SD=10.4%)"}, {"measurement": "K1 (plasma-to-tissue transport rate)", "setting": "[1]; SD from asymptotic covariance matrix", "result": "0.51 (SD=1.5%)"}, {"measurement": "reduction of K1 in damaged compared to healthy tissue", "setting": "MC-I; [3]", "result": "about 50%"}, {"measurement": "reduction of VT in damaged compared to healthy tissue", "setting": "MC-I; [3]", "result": "about 75%"}, {"measurement": "binding reduction (BP) in damaged tissues", "setting": "MC-I; grand fit with common VND across regions", "result": "up to 90%"}, {"measurement": "unidirectional extraction fraction", "setting": "[2]; at all physiological flow values", "result": "~1"}, {"measurement": "brain blood barrier passage", "setting": "[2]; in vivo", "result": "crosses the brain blood barrier"}]}]}
